Test results from patent publication US20070128217A1 (priority 2003, published 2007).

Experiments:
[1] = tested on: recombinant human anti-SARS-CoV antibody 03-018; format: binding; parameters: Binding of antibody 03-018 to linear peptides of the N protein of SARS-CoV Urbani / Binding of antibody 03-018 to looped/cyclic peptides of the N protein of SARS-CoV Urbani: unit not given here
[2] = tested on: antibodies in sera from SARS patients (sera 1a, 1b, 2, 6, 37, 62, London, SARS-yellow, SARS-green); format: binding, human; parameters: Binding of serum 6 to linear peptides of protein X1 of SARS-CoV Urbani / Binding of serum 37 to linear peptides of protein X1 of SARS-CoV Urbani / Binding of serum 6 to looped/cyclic peptide (PEPSCAN-ELISA) / Binding of serum 37 to looped/cyclic peptide (PEPSCAN-ELISA) / Binding of serum 37 to looped/cyclic peptides of protein X1 of SARS-CoV Urbani / Binding of serum 6 to linear peptides of protein X2 / Binding of serum 37 to linear peptides of protein X2 / Binding of serum 37 to looped/cyclic peptides of protein X2 of SARS-CoV Urbani / Binding of serum 6 to linear peptides of protein M of SARS-CoV Urbani / Binding of serum 37 to linear peptides of protein M of SARS-CoV Urbani / Binding of serum 6 to looped/cyclic peptides of protein M of SARS-CoV Urbani / Binding of serum 37 to looped/cyclic peptides of protein M of SARS-CoV Urbani / Binding of serum 6 to linear peptides of protein X3 of SARS-CoV Urbani / Binding of serum 37 to linear peptides of protein X3 of SARS-CoV Urbani / Binding of serum 37 to looped/cyclic peptides of protein X3 of SARS-CoV Urbani / Binding of serum 6 to linear peptides of protein X4 of SARS-CoV Urbani / Binding of serum 37 to linear peptides of protein X4 of SARS-CoV Urbani / Binding of serum 37 to looped/cyclic peptides of protein X4 of SARS-CoV Urbani / Binding of serum 6 to linear peptides of protein X5 of SARS-CoV Urbani / Binding of serum 37 to linear peptides of protein X5 of SARS-CoV Urbani / Binding of serum 37 to looped/cyclic peptides of protein X5 of SARS-CoV Urbani / Binding of serum 6 to linear peptides of protein N of SARS-CoV Urbani / Binding of serum 37 to linear peptides of protein N of SARS-CoV Urbani / Binding of serum 6 to linear peptide (PEPSCAN-ELISA) / Binding of serum 1a to looped/cyclic peptides of protein N of SARS-CoV Urbani / Binding of serum 1b to looped/cyclic peptides of protein N of SARS-CoV Urbani / Binding of serum 2 to looped/cyclic peptides of protein N of SARS-CoV Urbani / Binding of serum 6 to looped/cyclic peptides of protein N of SARS-CoV Urbani / Binding of serum 37 to looped/cyclic peptides of protein N of SARS-CoV Urbani / Binding of serum 62 to looped/cyclic peptides of protein N of SARS-CoV Urbani / Binding of serum London to looped/cyclic peptides of protein N of SARS-CoV Urbani / Binding of serum SARS-green to looped/cyclic peptides of protein N of SARS-CoV Urbani: unit not given here
[3] = tested on: control sera (pooled serum of ten healthy LUMC hospital workers; commercial negative donor pooled serum from the Dutch bloodbank); format: binding, human; parameters: Binding of Control serum LUMC to linear peptides / Binding of Control serum Blood-bank to linear peptides / Binding of Control serum LUMC to looped peptides / Binding of Control Serum Blood-Bank to Looped peptides / Binding of Control serum LUMC to linear peptides of the protein M of SARS-CoV Urbani / Binding of Control serum Blood-bank to linear peptides of the protein M of SARS-CoV Urbani / Binding of Control serum LUMC to looped peptides of the protein M of SARS-CoV Urbani / Binding of Control Serum Blood-Bank to Looped peptides of the protein M of SARS-CoV Urbani: unit not given here
[4] = tested on: rabbit serum obtained by immunizing a rabbit with the SARS-CoV strain Frankfurt 1; format: binding; parameters: Binding of a rabbit serum to linear peptides / Binding of a rabbit serum to looped peptides / Rabbit serum linear peptides / Rabbit serum looped peptides / Binding of a rabbit serum to linear peptides of protein N of SARS-CoV Urbani (Rabbit serum linear peptides) / Binding of a rabbit serum to looped/cyclic peptides of protein N of SARS-CoV Urbani (Rabbit serum looped peptides): unit not given here

Row | Sequence | Binding of antibody 03-018 to linear peptides of the N protein of SARS-CoV Urbani [1] | Binding of antibody 03-018 to looped/cyclic peptides of the N protein of SARS-CoV Urbani [1] | Binding of serum 1a to linear peptides of protein N of SARS-CoV Urbani [2] | Binding of serum 1a to looped/cyclic peptides of protein N of SARS-CoV Urbani [2] | Binding of serum 1b to linear peptides of protein N of SARS-CoV Urbani [2] | Binding of serum 1b to looped/cyclic peptides of protein N of SARS-CoV Urbani [2] | Binding of serum 2 to linear peptides of protein N of SARS-CoV Urbani [2] | Binding of serum 2 to looped/cyclic peptides of protein N of SARS-CoV Urbani [2] | Binding of serum 6 to linear peptides of protein N of SARS-CoV Urbani [2] | Binding of serum 6 to looped/cyclic peptides of protein N of SARS-CoV Urbani [2] | Binding of serum 37 to linear peptides of protein N of SARS-CoV Urbani [2] | Binding of serum 37 to looped/cyclic peptides of protein N of SARS-CoV Urbani [2] | Binding of serum 62 to linear peptides of protein N of SARS-CoV Urbani [2] | Binding of serum 62 to looped/cyclic peptides of protein N of SARS-CoV Urbani [2] | Binding of serum London to linear peptides of protein N of SARS-CoV Urbani [2] | Binding of serum London to looped/cyclic peptides of protein N of SARS-CoV Urbani [2] | Binding of serum SARS-green to linear peptides of protein N of SARS-CoV Urbani [2] | Binding of serum SARS-green to looped/cyclic peptides of protein N of SARS-CoV Urbani [2] | Binding of serum SARS-yellow to linear peptides of protein N of SARS-CoV Urbani [2] | Binding of serum SARS-yellow to looped/cyclic peptides of protein N of SARS-CoV Urbani [2] | further results
1 | WYFYYLGTGPEASLP | 0.1 | 0.2 | 0.3 | 0.4 | 0.2 | 0.3 | 0.3 | 0.4 | 0.2 | 0.3 | 0.9 | 0.7 | 0.8 | 0.5 | 0.5 | 0.4 | 0.3 | 0.4 | 0.7 | 0.5 | Binding of Control Serum Blood-Bank to Looped peptides [3]: 0.6; Binding of Control serum Blood-bank to linear peptides [3]: 0.7; Binding of Control serum LUMC to linear peptides [3]: 0.6; Binding of Control serum LUMC to looped peptides [3]: 0.6; Binding of a rabbit serum to linear peptides of protein N of SARS-CoV Urbani (Rabbit serum linear peptides) [4]: 0.1; Binding of a rabbit serum to looped/cyclic peptides of protein N of SARS-CoV Urbani (Rabbit serum looped peptides) [4]: 0.3
2 | YKTFPPTEPKKDKKK | 0.1 | 0.2 | 0.2 | 0.2 | 0.1 | 0.1 | 0.5 | 0.1 | 0.2 | 0.0 | 0.7 | 0.4 | 0.7 | 0.2 | 0.5 | 0.3 | 0.2 | 0.0 | 0.8 | 0.2 | Control Serum Blood-Bank Looped peptides [3]: 0.3; Control serum Blood-bank linear peptides [3]: 0.7; Control serum LUMC linear peptides [3]: 0.6; Control serum LUMC looped peptides [3]: 0.3; Binding of a rabbit serum to linear peptides of protein N of SARS-CoV Urbani (Rabbit serum linear peptides) [4]: 0.2; Binding of a rabbit serum to looped/cyclic peptides of protein N of SARS-CoV Urbani (Rabbit serum looped peptides) [4]: 0.2
3 | YLGTGPEASLPYGAN | 0.1 | 0.2 | 0.2 | 0.4 | 0.1 | 0.3 | 0.2 | 0.4 | 0.2 | 0.2 | 0.7 | 0.8 | 0.6 | 0.7 | 0.5 | 0.5 | 0.3 | 0.6 | 0.6 | 0.6 | Binding of Control Serum Blood-Bank to Looped peptides [3]: 0.7; Binding of Control serum Blood-bank to linear peptides [3]: 0.6; Binding of Control serum LUMC to linear peptides [3]: 0.8; Binding of Control serum LUMC to looped peptides [3]: 0.7; Binding of a rabbit serum to linear peptides of protein N of SARS-CoV Urbani (Rabbit serum linear peptides) [4]: 0.1; Binding of a rabbit serum to looped/cyclic peptides of protein N of SARS-CoV Urbani (Rabbit serum looped peptides) [4]: 0.6
